Several values for one entry are separate records, joined by “and”; a condition that tells them apart may be missing. Equal values may be shown once.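 Method: 48-hour compound exposure of cells in 96-well plates, five concentrations, linear interpolation of endpoints. GI50 is the concentration that inhibits growth by half.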 Activity calls are given as the source filed them. No stated cut-off is given here; in the data, active = GI50 up to about 1.1 µM and inactive = higher.
Key:
Test in all cases: DTP human tumour cell line panel, 48 h
[1] = tested on: 786-0
[2] = tested on: A498
[3] = tested on: EKVX
[4] = tested on: HCT-116
[5] = tested on: HOP-62
[6] = tested on: HOP-92
[7] = tested on: K562
[8] = tested on: KM12
[9] = tested on: LOX IMVI
[10] = tested on: Malme-3M
[11] = tested on: NCI-H460
[12] = tested on: NCI-H522
[13] = tested on: OVCAR-4
[14] = tested on: PC-3
[15] = tested on: SF-295
[16] = tested on: SK-MEL-2
[17] = tested on: SNB-19
[18] = tested on: MCF7
[19] = tested on: NCI/ADR-RES

Measured: GI50

COC(=O)[C@@H]1[C@H](O)[C@H](C)[C@H](O)[C@@](C)(O)/C=C\C=C(\C)C(=O)Nc2c(C)c(OC(C)=O)c3c(c2O)C(=O)C(C)=C2OCOC(=C23)/C(C)=C/[C@@](C)(O)[C@H](O)[C@@H](C)[C@H]1OC(C)=O
inactive: [1] > 100 µM and 69.5 µM | [2] > 66.8 µM | [3] 78.2 µM | [4] 29.2 µM | [5] 40.5 µM | [6] > 66.8 µM | [7] 23.4 µM | [8] 47.8 µM | [9] 26.8 µM | [10] 31.3 µM | [11] 49 µM | [12] 47.2 µM and 21.5 µM | [13] 55.6 µM | [14] > 66.8 µM | [15] 88.5 µM | [16] 37.2 µM | [17] > 100 µM and 91.4 µM

CCOC(=O)/C(C#N)=C/c1ccc(CO)o1
inactive: [1] > 100 µM | [2] > 100 µM | [3] > 100 µM | [4] > 100 µM | [5] > 100 µM | [7] > 100 µM | [8] > 100 µM | [9] > 100 µM | [18] > 100 µM | [10] > 100 µM | [11] > 100 µM | [12] > 100 µM | [19] > 100 µM | [13] > 100 µM | [14] > 100 µM | [15] > 100 µM | [17] > 100 µM

C=C=C(C)[Si](C)(C)C
inactive: [1] > 100 µM | [2] > 100 µM | [4] > 100 µM | [5] > 100 µM | [7] > 100 µM | [8] > 100 µM | [9] > 100 µM | [18] > 100 µM | [10] > 100 µM | [11] > 100 µM | [12] > 100 µM | [19] > 100 µM | [13] > 100 µM | [14] > 100 µM | [15] > 100 µM | [16] > 100 µM | [17] > 100 µM

O=C1C=Cc2c(-c3ccccc3)oc3cccc1c23
inactive: [1] 23.7 µM | [2] 15.4 µM | [3] 3.19 µM | [4] 16.9 µM | [5] 13.8 µM | [6] 13.4 µM | [7] 17.2 µM | [8] 28.5 µM | [9] 11.2 µM | [10] 37 µM | [11] 5.07 µM | [12] 15.3 µM | [13] 40.7 µM | [15] 25.7 µM | [16] 67.1 µM | [17] 24 µM

NC1=C(N2CCCCC2)C(=O)NC2=N/C(=C\c3ccccc3)C(=O)N21
inactive: [1] > 100 µM | [2] > 100 µM | [3] 92.9 µM | [4] > 100 µM | [6] > 100 µM | [7] 57.5 µM | [8] > 100 µM | [9] > 100 µM | [18] > 100 µM | [10] > 100 µM | [11] > 100 µM | [12] 63.2 µM | [19] > 100 µM | [13] 86.3 µM | [15] > 100 µM | [17] > 100 µM

COC(C)(C)[C@@H]1CCCN1C1=C(C)C(=O)OC1
inactive: [1] > 100 µM | [4] > 100 µM | [5] > 100 µM | [7] > 100 µM | [9] > 100 µM | [18] > 100 µM | [10] > 100 µM | [11] > 100 µM | [19] > 100 µM | [14] > 100 µM | [15] > 100 µM | [16] > 100 µM | [17] > 100 µM

From ChEMBL document CHEMBL1201862, “PubChem BioAssay data set” (2004)
